Measured values: ChEMBL document CHEMBL1821592, “Dual effects of caffeoyl-amino acidyl-hydroxamic acid as an antioxidant and depigmenting agent” (Bioorg Med Chem Lett, 2011)
Calls of active or inactive are those of the source. The rule behind the calls is not given here.

Legend:
[1] = system: Radical scavenging activity; test: Antioxidant activity assessed as DPPH free radical scavenging activity at 1.85 mM after 10 mins relative to control; format: functional
[2] = Antioxidant activity against linoleic acid lipid peroxidation at 90 uM after 48 hrs by ferric thiocyanate method; format: functional
[3] = Cytotoxicity against mouse Mel-Ab cells up to 200 uM after 24 hrs by crystal violet staining based ELISA; format: cell-based
[4] = Antioxidant activity against linoleic acid lipid peroxidation at 90 uM by ferric thiocyanate method; format: functional
[5] = biological target: T1, Tyrosinase (Agaricus bisporus) (UniProt O42713); test: Inhibition of mushroom tyrosinase using L-DOPA as substrate at 50 uM after 10 mins by UV absorbance method
T1 sequence (whole entry): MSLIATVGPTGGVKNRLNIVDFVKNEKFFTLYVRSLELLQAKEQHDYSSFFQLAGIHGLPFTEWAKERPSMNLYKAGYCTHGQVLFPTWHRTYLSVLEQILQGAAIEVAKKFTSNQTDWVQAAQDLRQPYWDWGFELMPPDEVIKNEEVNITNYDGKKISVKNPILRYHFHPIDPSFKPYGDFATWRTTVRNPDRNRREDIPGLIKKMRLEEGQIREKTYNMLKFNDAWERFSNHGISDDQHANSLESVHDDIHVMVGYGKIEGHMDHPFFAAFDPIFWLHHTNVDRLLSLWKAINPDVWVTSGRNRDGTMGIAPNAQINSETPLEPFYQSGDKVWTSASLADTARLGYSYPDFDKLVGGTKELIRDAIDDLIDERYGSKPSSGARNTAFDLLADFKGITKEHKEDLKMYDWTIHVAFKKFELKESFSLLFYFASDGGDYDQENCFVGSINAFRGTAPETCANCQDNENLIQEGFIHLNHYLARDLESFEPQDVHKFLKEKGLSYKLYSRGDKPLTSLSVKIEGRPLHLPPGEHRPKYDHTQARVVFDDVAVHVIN

Mel-Ab = test: Inhibition of melanogenesis in mouse Mel-Ab cells assessed as reduction of melanin production at 100 uM after 4 days by ELISA reader; format: functional, cell-based

Structure (SMILES) | inhibition [5] | Activity [1] [%] | other results
O=C(/C=C/c1ccc(O)c(O)c1)N[C@H](Cc1ccccc1)C(=O)NO | – | 47.6 | –
O=C(NO)[C@@H]1CCCN1C(=O)/C=C/c1ccc(O)c(O)c1 | Active | 77.2 | Activity [2]: Active; Activity [3]: Non-toxic; Activity [4]: Active; inhibition (Mel-Ab): Active
O=C(O)[C@@H]1CCCN1C(=O)/C=C/c1ccc(O)c(O)c1 | – | 20 | Activity [2]: Active; Activity [4]: Active
O=C(/C=C/c1ccc(O)c(O)c1)N[C@@H](Cc1ccccc1)C(=O)NO | – | 40.9 | –
O=C(/C=C/c1ccc(O)c(O)c1)N[C@H](C(=O)NO)c1ccccc1 | – | 56.2 | –

The next lines start with results.

inhibition [5] | Structure (SMILES) | Activity [1] [%] | other results
Active | CC(C)C[C@H](NC(=O)/C=C/c1ccc(O)c(O)c1)C(=O)NO | 51.1 | –
inactive | O=C(O)/C=C/c1ccc(O)c(O)c1 | 52.4 | –
Active | C[C@H](NC(=O)/C=C/c1ccc(O)c(O)c1)C(=O)NO | 40.7 | –
Active | O=C(/C=C/c1ccc(O)c(O)c1)NC(Cc1ccccc1)C(=O)NO (stereo not drawn) | – | –
Active | O=C(/C=C/c1ccc(O)c(O)c1)NCC(=O)NO | 39.4 | –
Active | O=C(/C=C/c1ccc(O)c(O)c1)NCCC(=O)NO | 42.2 | –
